Measured values taken from patent US20260285850A1, “SUBSTITUTED OXAZOLIDINONES AND IMIDAZOLINONES AS HERBICIDES” (FMC CORPORATION, priority 2023, published 2026).

Assays:
Assay type in all cases: in vivo
[1] = test system: ducksalad (Heteranthera limosa); assay: Test B flooded paddy test, visual plant response rating 0-100; conditions: 250 g ai/ha, Flood, applied to paddy water, evaluated after 13 days
Outline: (§1)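 In this flooded assay, 2-leaf seedlings received compound through the water layer, kept at 3 cm over the soil. Plants were held 13 days in a greenhouse and then visually compared with control pots.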

rice (Oryza sativa) = assay: as above; conditions: 250 g ai/ha, Flood, applied to paddy water, evaluated after 13 days
Outline: as §1

[2] = test system: barnyardgrass (Echinochloa crusgalli); assay: as above; conditions: 250 g ai/ha, Flood, applied to paddy water, evaluated after 13 days
Outline: as §1

[3] = test system: sedge, umbrella (small-flower umbrella sedge, Cyperus difformis); assay: as above; conditions: 250 g ai/ha, Flood, applied to paddy water, evaluated after 13 days
Outline: as §1

kochia (Bassia scoparia) [4] = assay: Test A postemergence application, visual injury rating 0-100; conditions: 10 days
Outline: (§2)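 Greenhouse test: loam/sand pots received a surfactant-containing formulation, as a preemergence directed soil spray or a postemergence spray on young plants. Injury was judged visually at day 10 relative to untreated controls.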

[5] = test system: green foxtail (Setaria viridis); assay: as above; conditions: 10 days
Outline: as §2

soybean (Glycine max) [6] = assay: as above; conditions: 10 days
Outline: as §2

[7] = test system: oat, wild (wild oat, Avena fatua); assay: as above; conditions: 10 days
Outline: as §2

[8] = test system: horseweed (Erigeron canadensis); assay: as above; conditions: 10 days
Outline: as §2

[9] = test system: barnyardgrass (Echinochloa crus-galli); assay: as above; conditions: 10 days
Outline: as §2

corn (Zea mays) [10] = assay: as above; conditions: 10 days
Outline: as §2

[11] = test system: ryegrass, Italian (italian ryegrass, Lolium multiflorum); assay: as above; conditions: 10 days
Outline: as §2

[12] = test system: ragweed (common ragweed, Ambrosia artemisiifolia); assay: as above; conditions: 10 days
Outline: as §2

[13] = test system: galium (catchweed bedstraw, Galium aparine); assay: as above; conditions: 10 days
Outline: as §2

[14] = test system: palmer (palmer amaranth, palmer pigweed, Amaranthus palmeri); assay: as above; conditions: 10 days
Outline: as §2

[15] = test system: blackgrass (Alopecurus myosuroides); assay: as above; conditions: 10 days
Outline: as §2

[16] = test system: wheat (Triticum aestivum); assay: as above; conditions: 10 days
Outline: as §2

kochia (Bassia scoparia) [17] = assay: Test A preemergence soil spray, visual injury rating 0-100; conditions: 10 days, 0 = no effect, 100 = complete control
Outline: as §2

[18] = test system: green foxtail (Setaria viridis); assay: as above; conditions: 10 days, 0 = no effect, 100 = complete control
Outline: as §2

soybean (Glycine max) [19] = assay: as above; conditions: 10 days, 0 = no effect, 100 = complete control
Outline: as §2

[20] = test system: oat, wild (wild oat, Avena fatua); assay: as above; conditions: 10 days, 0 = no effect, 100 = complete control
Outline: as §2

[21] = test system: barnyardgrass (Echinochloa crus-galli); assay: as above; conditions: 10 days, 0 = no effect, 100 = complete control
Outline: as §2

corn (Zea mays) [22] = assay: as above; conditions: 10 days, 0 = no effect, 100 = complete control
Outline: as §2

[23] = test system: ryegrass, Italian (italian ryegrass, Lolium multiflorum); assay: as above; conditions: 10 days, 0 = no effect, 100 = complete control
Outline: as §2

[24] = test system: ragweed (common ragweed, Ambrosia artemisiifolia); assay: as above; conditions: 10 days, 0 = no effect, 100 = complete control
Outline: as §2

[25] = test system: palmer (palmer amaranth, palmer pigweed, Amaranthus palmeri); assay: as above; conditions: 10 days, 0 = no effect, 100 = complete control
Outline: as §2

[26] = test system: blackgrass (Alopecurus myosuroides); assay: as above; conditions: 10 days, 0 = no effect, 100 = complete control
Outline: as §2

[27] = test system: wheat (Triticum aestivum); assay: as above; conditions: 10 days, 0 = no effect, 100 = complete control
Outline: as §2

[28] = 31 g ai/ha, postemergence, 0 = no effect, 100 = complete control
[29] = Postemergence, 125 g ai/ha, 0 is no effect, 100 is complete control

SMILES: CC(C)OC(=O)C1C=CC(NC(=O)C2(C)CN(c3cc(F)cc(Cl)c3)C(=O)O2)C1 (stereo not shown) [Compound 4]
- Plant response rating, Ducksalad (0 to 100 scale, 0 is no effect and 100 is complete control) [1]: 70
- Plant response rating, Rice (0 to 100 scale, 0 is no effect and 100 is complete control) (rice (Oryza sativa)): 20
- Plant response rating, Barnyardgrass (0 to 100 scale, 0 is no effect and 100 is complete control) [2]: 90
- Plant response rating, Sedge, Umbrella (0 to 100 scale, 0 is no effect and 100 is complete control) [3]: 95
- Kochia plant response rating (0-100) (kochia (Bassia scoparia) [4]; [28]): 70
- Kochia plant response rating (0 to 100 scale) (kochia (Bassia scoparia) [4]; [29]): 80
- Foxtail, Green plant response rating (0-100) [5, 28]: 90
- Foxtail, Green plant response rating (0 to 100 scale) [5, 29]: 90
- Soybean plant response rating (0-100) (soybean (Glycine max) [6]; [28]): 80
- Soybean plant response rating (0 to 100 scale) (soybean (Glycine max) [6]; [29]): 80
- Oat, Wild plant response rating (0-100) [7, 28]: 90
- Oat, Wild plant response rating (0 to 100 scale) [7, 29]: 90
- Horseweed plant response rating (0-100) [8, 28]: 0
- Horseweed plant response rating (0 to 100 scale) [8, 29]: 70
- Barnyardgrass plant response rating (0-100) [9, 28]: 100
- Barnyardgrass plant response rating (0 to 100 scale) [9, 29]: 100
- Corn plant response rating (0-100) (corn (Zea mays) [10]; [28]): 90
- Corn plant response rating (0 to 100 scale) (corn (Zea mays) [10]; [29]): 100
- Ryegrass, Italian plant response rating (0-100) [11, 28]: 60
- Ryegrass, Italian plant response rating (0 to 100 scale) [11, 29]: 90
- Ragweed plant response rating (0-100) [12, 28]: 60
- Ragweed plant response rating (0 to 100 scale) [12, 29]: 80
- Galium plant response rating (0-100) [13, 28]: 80
- Galium plant response rating (0 to 100 scale) [13, 29]: 90
- Amaranth, Palmer plant response rating (0-100) [14, 28]: 50
- Amaranth, Palmer / Pigweed, Palmer plant response rating (0 to 100 scale) [14, 29]: 90
- Blackgrass plant response rating (0-100) [15, 28]: 80
- Blackgrass plant response rating (0 to 100 scale) [15, 29]: 90
- Wheat plant response rating (0-100) [16, 28]: 90
- Wheat plant response rating (0 to 100 scale) [16, 29]: 90
- Kochia plant response rating (0-100) (kochia (Bassia scoparia) [17]; 31 g ai/ha): 40
- Kochia plant response rating (0 to 100 scale) (kochia (Bassia scoparia) [17]; 125 g ai/ha): 90
- Foxtail, Green plant response rating (0-100) ([18]; 31 g ai/ha): 0
- Foxtail, Green plant response rating (0 to 100 scale) ([18]; 125 g ai/ha): 100
- Soybean plant response rating (0-100) (soybean (Glycine max) [19]; 31 g ai/ha): 0
- Soybean plant response rating (0 to 100 scale) (soybean (Glycine max) [19]; 125 g ai/ha): 70
- Oat, Wild plant response rating (0-100) ([20]; 31 g ai/ha): 50
- Oat, Wild plant response rating (0 to 100 scale) ([20]; 125 g ai/ha): 80
- Barnyardgrass plant response rating (0-100) ([21]; 31 g ai/ha): 50
- Barnyardgrass plant response rating (0 to 100 scale) ([21]; 125 g ai/ha): 100
- Corn plant response rating (0-100) (corn (Zea mays) [22]; 31 g ai/ha): 40
- Corn plant response rating (0 to 100 scale) (corn (Zea mays) [22]; 125 g ai/ha): 70
- Ryegrass, Italian plant response rating (0-100) ([23]; 31 g ai/ha): 50
- Ryegrass, Italian plant response rating (0 to 100 scale) ([23]; 125 g ai/ha): 80
- Ragweed plant response rating (0-100) ([24]; 31 g ai/ha): 0
- Ragweed plant response rating (0 to 100 scale) ([24]; 125 g ai/ha): 0
- Amaranth, Palmer plant response rating (0-100) ([25]; 31 g ai/ha): 30
- Amaranth, Palmer plant response rating (0 to 100 scale) ([25]; 125 g ai/ha): 100
- Blackgrass plant response rating (0-100) ([26]; 31 g ai/ha): 0
- Blackgrass plant response rating (0 to 100 scale) ([26]; 125 g ai/ha): 60
- Wheat plant response rating (0-100) ([27]; 31 g ai/ha): 40
- Wheat plant response rating (0 to 100 scale) ([27]; 125 g ai/ha): 90
